“Also recorded” adds a separate entry of the source.
Tests used:
[1] = system: RTV-209 patient virus (RT E138A, Y188L); test: Phenotypic susceptibility assay, RTV-209 (patient 97-209); assay type: cell-based, HIV-1
Description: (§1) Transfections were performed using a calcium-phosphate precipitation procedure. […] Cell lysates were assayed for luciferase activity (FIG. 3). […] The drug inhibition curves are shown in (FIG. 3).
This patient had been previously treated with AZT, ddI, d4T and 3TC (NRTIs), indinavir (a PRIs) and adefovir. […].

[2] = system: RTV-300 patient virus (RT K32N, M184V, Y188L); test: Phenotypic susceptibility assay, RTV-300 (patient 97-300); assay type: cell-based, HIV-1
Description: as §1
This patient had been previously treated with d4T and 3TC (NRTIs), indinavir (a PR1) and efavirenz (an NNRTI).

[3] = system: patient 302 virus clones K103N, P225H versus K103N, I135M, R211K; settings: patient 302 clones with versus without P225H, FIG. 8C
Description: (§2) Resistance tests were carried out with resistance test vectors using two host cell types. Resistance test vector viral particles were produced by a first host cell (the resistance test vector host cell) that was prepared by transfecting a packaging host cell with the resistance test vector and the packaging expression vector. The resistance test vector viral particles were then used to infect a second host cell (the target host cell) in which the expression of the indicator gene is measured.
(§3) The resistance test vectors containing a functional luciferase gene cassette were constructed and host cells were transfected with the resistance test vector DNA. The resistant test vectors contained patient-derived reverse transcriptase and protease sequences that were either susceptible or resistant to the antiretroviral agents, such as nucleoside reverse transcriptase inhibitors, non-nucleoside reverse transcriptase inhibitors and protease inhibitors. The resistance test vector viral particles produced by transfecting the resistance test vector DNA into host cells, either in the presence or absence of protease inhibitors, were used to infect target host cells grown either in the absence of NRTI or NNRTI or in the presence of increasing concentrations of the drug. The amount of luciferase activity produced in infected target host cells in the presence of drug was compared to the amount of luciferase produced in infected target host cells in the absence of drug. Drug resistance was measured as the amount of drug required to inhibit by 50% the luciferase activity detected in the absence of drug (inhibitory concentration 50%, IC50). The IC50 values were determined by plotting percent drug inhibition vs. log10 drug concentration.
(§4) Host cells were seeded in 10-cm-diameter dishes and were transfected several days after plating with resistance test vector plasmid DNA and the envelope expression vector. Transfections were performed using a calcium-phosphate precipitation procedure. The cell culture media containing the DNA precipitate was replaced with fresh medium, from one to 24 hours, after transfection. Cell culture media containing resistance test vector viral particles was harvested one to four days after transfection and was passed through a […] filter before being stored at −80° C. HIV capsid protein (p24) levels in the harvested cell culture media were determined by an EIA method as described by the manufacturer (SIAC; Frederick, Md.). Before infection, target cells (293 and 293/T) were plated in cell culture media. Control infections were performed using cell culture media from mock transfections (no DNA) or transfections containing the resistance test vector plasmid DNA without the envelope expression plasmid. One to three or more days after infection the media was removed and cell lysis buffer (Promega) was added to each well. […] The inhibitory effect of the drug was determined using the following equation: % luciferase inhibition=1-(RLUluc[drug]÷RLUluc)×100 where RLUluc [drug] is the relative light unit of luciferase activity in infected cells in the presence of drug and RLUluc is the Relative Light Unit of luciferase activity in infected cells in the absence of drug. IC50 values were obtained from the sigmoidal curves that were generated from the data by plotting the percent inhibition of luciferase activity vs. the log10 drug concentration.

[4] = system: RTV-652 patient virus (RT V108I); settings: >1 decrease, <1 increased susceptibility
Description: as §2, §3, §4

[5] = system: HIV reverse transcriptase K103N + Y181C double mutant; settings: K103N + Y181C double mutant compared to single mutants, FIG. 5
Description: as §2, §3, §4

[6] = system: RTV-675 patient virus (RT A98G); settings: >1 decreased susceptibility
Description: as §2, §3, §4

[7] = system: patient 487 virus (RT M184V, K103N); settings: FIG. 4
Description: as §2, §3, §4

[8] = system: RTV-1057 patient virus (RT A98G, Y181C); test: Phenotypic susceptibility assay, RTV-1057 (patient 98-1057); assay type: cell-based, HIV-1
Description: as §1

[9] = system: HIV reverse transcriptase mutation at codon 230 alone or in combination with codon 181; test: Phenotypic susceptibility assay, mutation at codon 230 alone or with codon 181; assay type: cell-based
[10] = system: RTV-1058 clone 5 (RT L100I, K103N); test: Phenotypic susceptibility assay, RTV-1058 clone 5; assay type: cell-based, HIV-1
Description: as §1

[11] = target: RT with P236L substitution (Human immunodeficiency virus type 1 group M subtype B, UniProt P04585, P823L); settings: cited from earlier work; for previously reported effect of the P236L mutation: Dueweke et al. 1993
[12] = system: HIV-1 reverse transcriptase V106A + V189L (V106A-V189L-RTV); test: Phenotypic susceptibility assay, site directed mutant V106A-V189L-RTV; assay type: cell-based; settings: >1 loss of susceptibility
Description: as §2
as §3, with “The amount of luciferase activity produced in infected target host cells in the presence of drug was compared to the amount of luciferase produced in infected target host cells in the absence of drug. Drug resistance was measured as the amount of drug required to inhibit by 50% the luciferase activity detected in the absence of drug (inhibitory concentration 50%, IC50).” left out
Host cells were seeded in 10-cm-diameter dishes and were transfected several days after plating with resistance test vector plasmid DNA and the envelope expression vector. […] HIV capsid protein (p24) levels in the harvested cell culture media were determined by an EIA method as described by the manufacturer (SIAC; Frederick, Md.). […] The inhibitory effect of the drug was determined using the following equation: % luciferase inhibition=1-(RLUluc[drug]÷RLUluc)×100 where RLUluc [drug] is the relative light unit of luciferase activity in infected cells in the presence of drug and RLUluc is the Relative Light Unit of luciferase activity in infected cells in the absence of drug. […]

[13] = system: RTV-302 patient virus (RT K103N, I135M, T200A, P225H); test: Phenotypic susceptibility assay, RTV-302 (patient 97-302); assay type: cell-based, HIV-1
Description: as §1
This patient had been treated with d4T, indinavir and DMP-266 for a period of approximately 10 months. […] An IC50 was determined for each drug tested. Susceptibility of the patient virus to each drug was examined and compared to known patterns of susceptibility. […] Patient sample 97-302 was examined further for genotypic changes associated with the observed pattern of susceptibility.

[14] = system: RTV-757 patient virus (RT V106A, V108I, V189L); test: Phenotypic susceptibility assay, RTV-757 (patient 98-757); assay type: cell-based, HIV-1; settings: RTV-757 patient virus (same patient as RTV-1033, later time point)
Description: as §1

Structure (SMILES) | decrease in susceptibility [1] | decrease in susceptibility [2] | effect of P225H on resistance associated with K103N [3] | fold change in susceptibility [4] [fold] | resistance profile [5] | fold change in susceptibility [6] [fold] | resistance profile [7] | decrease in susceptibility [8] [fold] | change in susceptibility [9] | loss of susceptibility [10] [fold] | previously reported effect of the P236L mutation [11] | fold change in susceptibility compared to wild type control RTV [12] [fold] | change in susceptibility [13] | decrease in susceptibility [14] | reduction of IC50 ([11]; P236L substitution) [fold]
CC(C)Nc1cccnc1N1CCN(C(=O)c2cc3cc(NS(C)(=O)=O)ccc3[nH]2)CC1 [delavirdine] | 75 fold | 25 fold | reduces the amount delavirdine resistance | 0.97 | further increase in resistance | 2.1 | increased resistance | 35 | significant decrease | 250 | delavirdine resistance | 3 | modest decrease; also recorded: reduced susceptibility | 10 fold | –
O=C1Nc2ccc(Cl)cc2[C@@](C#CC2CC2)(C(F)(F)F)O1 [efavirenz] | – | – | – | – | – | – | – | – | – | – | – | 1 | – | – | –
Cc1ccnc2c1NC(=O)c1cccnc1N2C1CC1 [nevirapine] | greater than 800 fold | greater than 800 fold | does not alter the amount of nevirapine resistance | 5 | further increase in resistance | 6 | increased resistance | 610 | significant decrease | 120 | nevirapine hypersensitivity | 50 | significant decrease; also recorded: reduced susceptibility | greater than 800 fold | 7 to 10

Reference: patent US20050130134A1, “Means and methods for monitoring non-nucleoside reverse transcriptase inhibitor antiretroviral therapy and guiding therapeutic decisions in the treatment HIV-AIDS” (ViroLogic, Inc., priority 2000, published 2005)
